The values below come from paper PMC10246557, “Kinetic and inhibition studies on human Jumonji-C (JmjC) domain-containing protein 5” (RSC Chemical Biology, 2023).

Where two headings read alike, the source gives them in different places. Ends that are not written are not given here.

As usually defined, the IC50 is the concentration needed to halve the response being measured.

For test [1], the target named is T1, human JMJD5 (Homo sapiens, UniProt Q8N371).
T1 construct: made in house; host or cells: Escherichia coli BL21(DE3)
T1 sequence (Q8N371 whole entry): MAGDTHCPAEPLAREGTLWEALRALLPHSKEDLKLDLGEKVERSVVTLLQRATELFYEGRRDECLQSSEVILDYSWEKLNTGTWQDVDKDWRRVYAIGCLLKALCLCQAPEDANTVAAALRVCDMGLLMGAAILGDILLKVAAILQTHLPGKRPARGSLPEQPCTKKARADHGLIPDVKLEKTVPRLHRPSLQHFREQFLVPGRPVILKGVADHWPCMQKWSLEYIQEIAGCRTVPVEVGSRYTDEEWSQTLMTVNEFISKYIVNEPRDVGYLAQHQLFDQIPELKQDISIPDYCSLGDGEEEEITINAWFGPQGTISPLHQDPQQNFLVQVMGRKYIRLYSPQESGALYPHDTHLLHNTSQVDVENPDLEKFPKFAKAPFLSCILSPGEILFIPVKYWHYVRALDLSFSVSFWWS
The experiment in a line: SPE-MS JMJD5 turnover and kinetic assay (RPS6_128–148 hydroxylation). It counts as biochemical. As to conditions: for JMJD5 (%): RPS6_128–148 hydroxylation with the compound as cosubstrate: absence of 2OG, JMJD5 0.15 μM, 2OG derivative 400 μM, Fe(II) 20 μM, RPS6_128–148 2.0 μM.

Test [2] deals with T1, human JMJD5. The experiment in a line: SPE-MS JMJD5 inhibition assay. It counts as biochemical. As to conditions: JMJD5 0.15 μM, 2OG 2.0 μM, Fe(II) 2.0 μM, LAA 100 μM, RPS6_128–148 2.0 μM; read-out: IC50 JMJD5. As for the experimental part: Solutions of the small-molecules (100% DMSO) were dry dispensed across 384 well polypropylene V-bottom assay microplates (Greiner) in an approximately three-fold and 11-point dilution series (100 μM inhibitor top concentration; the final DMSO assay concentration was kept constant at 0.5%v/v) using an ECHO 550 acoustic dispenser (Labcyte). […] Each reaction was performed in technical duplicates in adjacent wells of the assay plates; additionally, assays were performed in two independent duplicates on different days using different inhibitor solutions.
The Enzyme Mixture (25 μL per well), containing 0.3 μM His6-thioredoxin-tagged JMJD5 in buffer (50 mM MOPS, pH 7.5), was dispensed across the inhibitor-containing 384-well plates with a multidrop dispenser (ThermoFischer Scientific) at 20 °C under an ambient atmosphere. The plates were subsequently centrifuged (1000 rpm, 5 s) and incubated for 15 min at 20 °C. […] The plates were centrifuged (1000 rpm, 5 s) and, after incubating for 30 min, the enzyme reaction was stopped by the addition of 10%v/v aqueous formic acid (5 μL per well). The plates were then centrifuged (1000 rpm, 30 s) and analyzed by MS.
Z′-Factors were calculated according to the cited literature using Microsoft Excel.[61]

Test [3] concerns the target T2, human KDM4E (Homo sapiens, UniProt B2RXH2).
T2 sequence (B2RXH2 1-506): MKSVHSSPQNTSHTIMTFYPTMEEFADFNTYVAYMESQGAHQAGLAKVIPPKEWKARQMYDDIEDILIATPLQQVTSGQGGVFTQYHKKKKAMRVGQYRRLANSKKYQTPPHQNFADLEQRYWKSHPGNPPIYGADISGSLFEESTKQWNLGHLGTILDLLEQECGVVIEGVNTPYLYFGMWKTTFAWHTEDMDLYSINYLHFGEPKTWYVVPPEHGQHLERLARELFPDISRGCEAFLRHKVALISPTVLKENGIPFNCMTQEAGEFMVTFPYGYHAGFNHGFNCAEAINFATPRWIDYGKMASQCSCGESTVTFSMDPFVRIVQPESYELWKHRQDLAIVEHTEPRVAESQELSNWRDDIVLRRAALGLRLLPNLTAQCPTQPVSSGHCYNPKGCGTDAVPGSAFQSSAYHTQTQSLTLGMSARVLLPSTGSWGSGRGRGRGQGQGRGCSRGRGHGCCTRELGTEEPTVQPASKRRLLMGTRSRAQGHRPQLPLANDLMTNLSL
The experiment in a line: KDM4E SPE-MS turnover and kinetic assay (H3 K9(me3) peptide demethylation). It counts as biochemical. As to conditions: for KDM4E (%): substrate demethylation with the compound as cosubstrate: absence of 2OG, KDM4E 0.15 μM, 2OG derivative 330 μM, Fe(II) 50 μM, ARTAQTARK(me3)STGGIA 10.0 μM.

The test system of test [4] is human FIH. Conditions: absence of 2OG, FIH 0.15 μM, 2OG derivative 330 μM, Fe(II) 50 μM, HIF-1α788–822 5.0 μM, cited from earlier work.
For test [5], the system named is human FIH. Further details: method as in ref 10 (ESI). Conditions: FIH 0.15 μM, HIF-1α788-822 5.0 μM, 2OG 10 μM; ref 10 (ESI); cited from earlier work.
Test [6] deals with human AspH. Conditions: absence of 2OG, AspH 0.1 μM, 2OG derivative 330 μM, Fe(II) 50 μM, hFX-CP101–119 2.0 μM, cited from earlier work.
Test [7] has as its system human AspH. Further details: method as in ref 9 (ESI). As to conditions: AspH 0.05 μM, hFX-CP101-119 1.0 μM, 2OG 3.0 μM; ref 9 (ESI); cited from earlier work.
Test [8] deals with T2, human KDM4E. The experiment in a line: KDM4E SPE-MS inhibition assay. It counts as biochemical. Conditions: KDM4E 0.15 μM, peptide 10.0 μM, LAA 100 μM, FAS 10 μM, 2OG 10 μM. As for the experimental part: KDM4E turnover and inhibition assays were performed as reported using recombinant human KDM4E and a histone 3 K9(me3) derivative (i.e. […](me3)STGGIA)[41] as substrate.[95] […]

The subject of test [9] is JMJD5. As to conditions: cited from earlier work.

4-methyl-2OG [2OG derivative 8]: in [1], the “JMJD5 (%): RPS6_128–148 hydroxylation with the compound as cosubstrate” value (shortened to “JMJD5 (%): RPS6_128–148 hydroxylation”) is ~ 10%. Also, the 50% inhibitory concentration (IC50) in [2], in test [5] and in test [7] was over 50 µM throughout. The “KDM4E (%): substrate demethylation with the compound as cosubstrate” value (shortened to “KDM4E (%): substrate demethylation”) in test [3] is recorded as under 1%. Moreover, the “FIH (%): substrate hydroxylation with the compound as cosubstrate” value (from here on “FIH (%): substrate hydroxylation”) in test [4] is ~ 45%. Also, the “AspH (%): substrate hydroxylation with the compound as cosubstrate” value (shortened to “AspH (%): substrate hydroxylation”) in test [6] is given as ~ 10%.
On to `O=C(O)C(=O)C1C2C=CC(C2)C1C(=O)O` (racemic) [2OG derivative 26], for which, in test [1], the “JMJD5 (%): RPS6_128–148 hydroxylation” value is under 1%. Moreover, the IC50 in test [2], in [8] and in test [5] was over 50 µM in each case. For the same compound, the “KDM4E (%): substrate demethylation” value in test [3] is under 1%. For the same compound, the “FIH (%): substrate hydroxylation” value in [4] was under 1%. The “AspH (%): substrate hydroxylation” value in [6] is under 1%.
Consider `CC(CC(=O)O)C(=O)C(=O)O` (stereo not drawn) [2OG derivative 1, 3-methyl-2OG], for which the “JMJD5 (%): RPS6_128–148 hydroxylation” value in test [1] (listed as Entry 2) is ~ 10%. In addition, the “JMJD5-catalyzed RPS6_128–148 hydroxylation, time course” value in test [1] (after 50 min, 10 μM cosubstrate, 0.15 μM JMJD5, 10 μM Fe(II), 2.0 μM RPS6_128–148) is reported as about 20%. For the same compound, the concentration for half-maximal inhibition (IC50) is over 50 µM in test [2], over 30 µM in [8], over 50 µM in test [5] and over 50 µM in [7]. Moreover, the “fold less efficient KDM4E cosubstrate than 2OG” value in test [3] is on record as about 7 fold. Further, in test [3] (listed as Entry 2), the “KDM4E (%): substrate demethylation” value is ~ 10%. Further, the “FIH (%): substrate hydroxylation” value in [4] (listed as Entry 2) is listed as ~ 55%. Besides, the “AspH (%): substrate hydroxylation” value in test [6] (listed as Entry 2) is recorded as over 95%.
Turning to `CC(C)(CC(=O)C(=O)O)C(=O)O` [2OG derivative 9, 4,4-dimethyl-2OG], the “KDM4E (%): substrate demethylation” value in test [3] (listed as Entry 13) is reported as under 1%. The IC50 in test [8] is over 30 µM; in test [5] it was over 50 µM; in test [7], about 0.3 µM. For the same compound, the “FIH (%): substrate hydroxylation” value in test [4] (listed as Entry 13) is on record as under 5%. For the same compound, in test [6] (listed as Entry 13), the “AspH (%): substrate hydroxylation” value is reported as under 1%.
As to `O=C(O)C(=O)C1(C(=O)O)CC1` [2OG derivative 25], in [1], the “JMJD5 (%): RPS6_128–148 hydroxylation” value is on record as under 1%. The IC50 was over 50 µM in test [2], over 50 µM in test [8], over 50 µM in test [5] and 3.3 ± 1 µM in test [7]. Also, the “KDM4E (%): substrate demethylation” value in test [3] is on record as under 1%. Further, in test [4], the “FIH (%): substrate hydroxylation” value is recorded as under 1%. The “AspH (%): substrate hydroxylation” value in [6] is under 1%.
For the compound `O=C(O)C(=O)c1ccc(C(=O)O)cc1F` [2OG derivative 28], the “JMJD5 (%): RPS6_128–148 hydroxylation” value in test [1] was under 1%. Besides, the IC50 in [2], in test [8], in test [5] and in [7] was over 50 µM throughout. The “KDM4E (%): substrate demethylation” value in test [3] is under 1%. Moreover, in [4], the “FIH (%): substrate hydroxylation” value is recorded as under 1%. Besides, the “AspH (%): substrate hydroxylation” value in [6] is ~ 45%.
In the case of `O=C(O)C(=O)c1ccc(C(=O)O)c(F)c1` [2OG derivative 29], in [1], the “JMJD5 (%): RPS6_128–148 hydroxylation” value was under 1%. The IC50 in [2], in test [8], in test [5] and in test [7] was over 50 µM each time. For the same compound, the “KDM4E (%): substrate demethylation” value in test [3] was under 1%. The “FIH (%): substrate hydroxylation” value in test [4] is under 1%. Further, the “AspH (%): substrate hydroxylation” value in test [6] is on record as ~ 8%.
In the case of `O=C(O)C(=O)c1ccc(C(=O)O)cc1Br` [2OG derivative 30], the “JMJD5 (%): RPS6_128–148 hydroxylation” value in test [1] was under 1%. For the same compound, the half-inhibitory concentration (IC50) in [2], in test [8], in test [5] and in test [7] was over 50 µM each time. For the same compound, the “KDM4E (%): substrate demethylation” value in [3] was under 1%. Besides, the “FIH (%): substrate hydroxylation” value in [4] was under 1%. Also, in [6], the “AspH (%): substrate hydroxylation” value is reported as ~ 20%.
`O=C(O)C(=O)c1ccc(C(=O)O)c(Br)c1` [2OG derivative 31]: the “JMJD5 (%): RPS6_128–148 hydroxylation” value in test [1] is under 1%. Besides, the 50% inhibitory concentration (IC50) in test [2], in test [8], in test [5] and in test [7] was over 50 µM throughout. In [3], the “KDM4E (%): substrate demethylation” value was under 1%. Also, the “FIH (%): substrate hydroxylation” value in [4] is on record as under 1%. Further, in test [6], the “AspH (%): substrate hydroxylation” value is ~ 8%.
Consider `Cc1cc(C(=O)O)ccc1C(=O)C(=O)O` [2OG derivative 32], for which the “JMJD5 (%): RPS6_128–148 hydroxylation” value in test [1] is reported as under 1%. The IC50 in [2], in test [8], in test [5] and in test [7] was over 50 µM each time. The “KDM4E (%): substrate demethylation” value in [3] was under 1%. In addition, the “FIH (%): substrate hydroxylation” value in test [4] was under 1%. Besides, the “AspH (%): substrate hydroxylation” value in test [6] is ~ 5%.
On to `O=C(O)C(=O)c1ccc(C(=O)O)s1` [2OG derivative 34], for which, in test [1], the “JMJD5 (%): RPS6_128–148 hydroxylation” value is under 1%. In addition, the values for the IC50 in [2], in [8] and in test [5] were over 30 µM, over 50 µM and over 50 µM, respectively. In addition, in test [3], the “KDM4E (%): substrate demethylation” value is listed as under 1%. In addition, the “FIH (%): substrate hydroxylation” value in test [4] is listed as under 1%. For the same compound, the “AspH (%): substrate hydroxylation” value in test [6] was ~ 15%.
On to `O=C(O)CNC(=O)c1ncc(-c2cccc(Cl)c2)cc1O` [vadadustat], for which the IC50 in [9] (read-out: IC50 JMJD5 (MALDI-TOF MS assay)) was about 54 µM.
Take “RPS6_129–144: truncated version of the RPS6_128–148 substrate peptide used in MALDI-TOF MS assays (VPRRLGPKRASRIRKL-NH2; UniProt P62753 129-144, looked up, fragment)”: in [9] (10.0 μM JMJD5, 50 mM HEPES pH 7.5, read-out: Km JMJD5 (MALDI-TOF MS assay)), the K m is about 60 µM.
